Experiments:
[1] = tested on: 4T1 (Mouse Breast Cancer); test: MTT cell viability assay; format: cell-based
Method: (§1) Cell viability assay was performed as described previously. Briefly, cells were seeded in 96 well plates and treated with different concentrations of compound 19 for 48 h. After drug treatment, MTT reagent was added in each well of the plate and cell viability was quantified by measuring the absorbance at 590 nm.

A172 (Brain) = test: MTT cell viability assay; format: cell-based
Method: as §1

A549 (Lung) = test: MTT cell viability assay; format: cell-based
Method: as §1

DLD1 (Colon) = test: MTT cell viability assay; format: cell-based
Method: as §1

[2] = tested on: HEK-293 (Non-cancerous cell); test: MTT cell viability assay; format: cell-based
Method: as §1

PANC-1 (Pancreas) = test: MTT cell viability assay; format: cell-based
Method: as §1

PLC/PRF/5 (Liver) = test: MTT cell viability assay; format: cell-based
Method: as §1

SK-OV-3 (Ovary) = test: MTT cell viability assay; format: cell-based
Method: as §1

MDA-MB-231 cells = test: Western blotting of DNA damage and apoptosis markers; format: cell-based, human; conditions: 6 and 12 µM, 48 h
Method: (§2) Cells (MDA-MB-231) were seeded in 6 well plates and treated either with vehicle control (DMSO) or with different concentrations (6 and 12 µM) of compound 19 for 48 h. After the treatment cell lysate was prepared and western blotting was performed as described previously. Briefly, the cells were lysed by very brief sonication. Sonicated samples were centrifuged and the supernatant was collected and used for ligation assay and western blotting.

[3] = Stability in simulated gastric and intestinal fluids; format: in vitro ADME; conditions: 2 µg/mL, up to 180 min
Method: Simulated gastric fluid (SGF) and simulated intestinal fluid (SIF) were prepared according to USP specifications. The compound 19 was incubated in SGF (0.2 g NaCl, 0.32 g pepsin, 0.7 mL HCl and triple distilled water up to 100 mL, pH 1.2) or SIF (0.680 g […], 0.616 g NaOH, 1 g pancreatin and triple distilled water up to 100 mL, pH 6.8). From the stock solution of compound 19 (1 mg/mL), equivalent concentration of 2 μg/mL of compound 19 were added to 1 mL of preincubated reaction mixture of SGF and SIF, at 37 °C in a shaking water bath in triplicate. 100 μL aliquots of sample was collected at each time point at 0, 5, 15, 30 and 60 min for SGF and 0, 5, 15, 30, 60 90, 120 and 180 min for SIF according to the human gastrointestinal transit time, followed by quenching with acetonitrile, then vortexed and centrifuged at 12000 rpm for 5 min. The supernatant was collected and analyzed by HPLC. The graph was plotted between % drug remaining and incubation time for SGF and SIF.

T4 DNA ligase = T4 DNA ligase (Enterobacteria phage T4, UniProt P00970); test: In-vitro DNA ligation assay; format: biochemical; conditions: 5, 10 and 20 µM
T4 DNA ligase, sequence (P00970 whole entry): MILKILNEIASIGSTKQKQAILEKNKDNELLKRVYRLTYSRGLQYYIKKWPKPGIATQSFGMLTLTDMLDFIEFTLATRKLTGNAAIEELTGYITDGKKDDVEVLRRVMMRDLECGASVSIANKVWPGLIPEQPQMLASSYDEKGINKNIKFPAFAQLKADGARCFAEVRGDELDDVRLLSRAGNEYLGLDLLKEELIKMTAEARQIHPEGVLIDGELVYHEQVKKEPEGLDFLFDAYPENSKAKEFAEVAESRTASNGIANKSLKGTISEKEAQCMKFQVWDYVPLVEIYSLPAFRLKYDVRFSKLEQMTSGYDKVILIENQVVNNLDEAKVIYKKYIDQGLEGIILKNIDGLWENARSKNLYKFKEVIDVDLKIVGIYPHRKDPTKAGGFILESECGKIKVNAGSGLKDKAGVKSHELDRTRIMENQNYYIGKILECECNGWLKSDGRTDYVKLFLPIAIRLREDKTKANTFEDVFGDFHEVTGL
Method: (§3) DNA ligation assay was performed as described previously. […] After the incubation, gel images were captured and analyzed by Image Quant LAS4010 software.

hLigI [4] = biological target: T1, hLigI (Homo sapiens, UniProt P18858); test: In-vitro DNA ligation assay; format: biochemical
T1 construct: made in house
T1 sequence (P18858 whole entry): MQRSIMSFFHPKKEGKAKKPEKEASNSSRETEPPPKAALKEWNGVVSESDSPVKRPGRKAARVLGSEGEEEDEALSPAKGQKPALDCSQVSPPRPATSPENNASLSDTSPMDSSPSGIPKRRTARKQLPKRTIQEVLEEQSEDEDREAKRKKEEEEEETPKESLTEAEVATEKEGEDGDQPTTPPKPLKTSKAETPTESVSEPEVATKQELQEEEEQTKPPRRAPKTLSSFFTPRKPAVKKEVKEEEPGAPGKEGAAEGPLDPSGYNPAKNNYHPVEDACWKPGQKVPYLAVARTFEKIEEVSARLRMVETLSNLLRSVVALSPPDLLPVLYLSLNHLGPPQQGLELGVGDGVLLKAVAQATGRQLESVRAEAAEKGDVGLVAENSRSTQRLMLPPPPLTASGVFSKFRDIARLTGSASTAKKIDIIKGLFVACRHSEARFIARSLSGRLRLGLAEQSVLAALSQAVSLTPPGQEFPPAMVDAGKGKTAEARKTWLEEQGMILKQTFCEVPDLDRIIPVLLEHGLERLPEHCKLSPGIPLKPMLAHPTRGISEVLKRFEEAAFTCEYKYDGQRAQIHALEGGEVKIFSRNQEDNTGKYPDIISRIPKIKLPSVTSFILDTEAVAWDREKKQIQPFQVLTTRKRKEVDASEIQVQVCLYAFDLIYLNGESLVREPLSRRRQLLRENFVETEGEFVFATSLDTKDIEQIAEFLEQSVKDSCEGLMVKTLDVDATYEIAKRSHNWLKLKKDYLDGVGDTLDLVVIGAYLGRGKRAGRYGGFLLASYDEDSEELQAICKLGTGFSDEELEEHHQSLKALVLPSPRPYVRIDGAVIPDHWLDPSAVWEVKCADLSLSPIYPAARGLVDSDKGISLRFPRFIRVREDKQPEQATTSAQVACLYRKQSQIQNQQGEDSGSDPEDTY
Method: as §3

hLigIIIβ = biological target: T2, hLigIIIβ (Homo sapiens, UniProt P49916); test: In-vitro DNA ligation assay; format: biochemical; conditions: 5, 10 and 20 µM
T2 construct: made in house; host or cells: E. coli Rosetta2 (DE3) pLacI
T2 sequence (P49916 43-949 isoform P49916-2 limits assumed): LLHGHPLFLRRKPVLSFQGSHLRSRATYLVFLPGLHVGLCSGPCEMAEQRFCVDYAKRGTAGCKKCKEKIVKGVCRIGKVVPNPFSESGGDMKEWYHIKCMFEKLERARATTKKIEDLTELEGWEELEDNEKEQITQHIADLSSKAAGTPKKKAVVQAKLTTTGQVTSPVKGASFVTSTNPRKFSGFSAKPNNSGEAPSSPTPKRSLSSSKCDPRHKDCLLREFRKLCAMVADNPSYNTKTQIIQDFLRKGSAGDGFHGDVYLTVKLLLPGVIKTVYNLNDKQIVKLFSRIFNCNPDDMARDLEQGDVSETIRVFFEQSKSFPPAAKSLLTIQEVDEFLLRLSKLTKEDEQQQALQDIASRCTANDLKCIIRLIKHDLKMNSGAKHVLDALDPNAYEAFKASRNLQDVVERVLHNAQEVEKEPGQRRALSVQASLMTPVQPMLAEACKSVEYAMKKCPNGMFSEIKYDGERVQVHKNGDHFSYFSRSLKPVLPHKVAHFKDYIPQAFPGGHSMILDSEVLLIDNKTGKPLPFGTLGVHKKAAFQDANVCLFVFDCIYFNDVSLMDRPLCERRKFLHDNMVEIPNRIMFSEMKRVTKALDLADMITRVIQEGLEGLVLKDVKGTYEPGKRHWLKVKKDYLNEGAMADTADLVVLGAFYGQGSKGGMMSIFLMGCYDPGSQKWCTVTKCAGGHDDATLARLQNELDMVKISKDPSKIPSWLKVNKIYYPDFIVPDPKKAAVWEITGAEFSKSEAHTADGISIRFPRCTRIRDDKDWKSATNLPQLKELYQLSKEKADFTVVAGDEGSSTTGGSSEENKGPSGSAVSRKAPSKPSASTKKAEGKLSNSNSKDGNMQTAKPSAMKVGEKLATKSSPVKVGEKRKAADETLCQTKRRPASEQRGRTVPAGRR
Method: as §3

hLigIV/XRCC4 = biological target: T3, hLigIV/XRCC4 (Homo sapiens, UniProt P49917); test: In-vitro DNA ligation assay; format: biochemical; conditions: 5, 10 and 20 µM
T3 construct: made in house; host or cells: E. coli Rosetta2 (DE3) pLacI
T3 sequence (P49917 whole entry): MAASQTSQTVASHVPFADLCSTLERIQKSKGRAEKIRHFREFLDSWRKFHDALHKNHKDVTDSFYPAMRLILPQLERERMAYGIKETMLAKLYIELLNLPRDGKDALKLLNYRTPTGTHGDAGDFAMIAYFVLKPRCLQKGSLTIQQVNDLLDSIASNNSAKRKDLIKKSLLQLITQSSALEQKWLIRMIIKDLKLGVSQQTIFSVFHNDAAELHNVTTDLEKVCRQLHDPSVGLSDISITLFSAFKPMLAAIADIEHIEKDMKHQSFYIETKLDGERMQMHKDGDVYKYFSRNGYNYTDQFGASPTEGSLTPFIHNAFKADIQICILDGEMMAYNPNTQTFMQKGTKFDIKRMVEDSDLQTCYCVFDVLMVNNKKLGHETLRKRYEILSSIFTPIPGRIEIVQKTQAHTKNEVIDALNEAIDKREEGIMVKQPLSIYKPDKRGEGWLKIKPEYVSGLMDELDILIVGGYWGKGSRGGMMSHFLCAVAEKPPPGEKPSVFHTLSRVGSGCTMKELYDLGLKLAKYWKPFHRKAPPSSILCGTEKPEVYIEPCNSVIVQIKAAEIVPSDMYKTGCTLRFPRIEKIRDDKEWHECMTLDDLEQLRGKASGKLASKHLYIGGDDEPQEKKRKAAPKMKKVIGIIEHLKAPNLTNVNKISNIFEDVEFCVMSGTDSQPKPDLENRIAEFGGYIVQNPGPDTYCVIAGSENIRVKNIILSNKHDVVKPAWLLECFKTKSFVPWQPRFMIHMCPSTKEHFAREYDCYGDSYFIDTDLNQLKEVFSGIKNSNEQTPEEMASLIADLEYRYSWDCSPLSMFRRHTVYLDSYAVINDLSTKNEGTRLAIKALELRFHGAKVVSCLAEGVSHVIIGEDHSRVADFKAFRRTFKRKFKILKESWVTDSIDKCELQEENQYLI
T3 sequence (Q13426 whole entry partner): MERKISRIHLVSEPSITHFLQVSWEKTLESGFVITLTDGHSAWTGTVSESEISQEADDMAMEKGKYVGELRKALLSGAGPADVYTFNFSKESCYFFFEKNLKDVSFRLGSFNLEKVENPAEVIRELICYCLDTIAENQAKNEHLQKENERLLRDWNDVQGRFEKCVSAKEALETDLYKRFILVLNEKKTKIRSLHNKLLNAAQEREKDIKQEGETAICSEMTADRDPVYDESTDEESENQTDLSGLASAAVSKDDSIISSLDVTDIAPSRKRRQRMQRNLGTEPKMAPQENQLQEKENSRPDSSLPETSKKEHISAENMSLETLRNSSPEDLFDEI
Method: as §3

[5] = biological target: T4, flap cleavage activity (FEN1) in MDA-MB-231 cell lysate (Homo sapiens, UniProt P39748); test: Ex-vivo flap cleavage with lysate of treated cells; format: cell-based; conditions: MDA-MB-231, treated 48 h
T4 construct: endogenous in cells; host or cells: MDA-MB-231
Method: as §2
The MDA-MB-231 and 4T1 cells were treated with different concentrations of compound 19 for 48h. Cell lysate were prepared as described previously ^6 for the ligation assay. Here we used same DNA substrate which was used in FEN1 flap cleavage assay so that we can check the activity of hLigI and FEN1 proteins in compound 19 treated samples. The reactions were performed as described previously ^6. In the Supplementary Fig. 74 cleaved product remain (25 mer) same. This cleaved product occurs after the cleavage of 25+6 mer oligo by FEN1 protein, since the cleaved product (25 mer) remains same in treated as well as in control samples we can conclude that the compound 19 unable to inhibit the FEN1 protein inside the cells. The cleaved product (25 mer) make a double strand nicked substrate for hLig I protein with 27 mer and 52 mer oligo used in the reaction. hLigI protein gives rise to ligated (52 mer oligo) product after the completion of reaction. […]

hLigI [6] = biological target: T1, hLigI; test: Circular dichroism study; format: binding; conditions: 5 and 10 µM
Method: We followed previously described protocol for CD studies[40] with small modifications. Briefly, emission spectra of hLigI (100 pmol) was recorded at a wavelength of 190-250 nm in the presence (5 and 10 µM) or absence of compound 19 by spectropolarimeter. The raw values in mdeg were obtained and used for mean residual ellipticity [θ] calculation. The graph was generated by the plotting the value of mean residue ellipticity in deg cm^2 dmol^−1 with respect to wavelength.

COc1cc(/C=C/c2cc(=O)oc3c2ccc2ccccc23)cc(OC)c1 [Compound 19, (E)-4-(3,5-dimethoxystyryl)-2H-benzo[h]chromen-2-one]
% Inhibition of cell viability at 10 µM, 4T1 (Mouse Breast Cancer) ([1]; 10 µM): 53.18%
IC50 ([1]; Mus musculus, MTT, 48 h): 11.6 ± 1.7 µM
% Inhibition of cell viability at 10 µM, A172 (Brain) (A172 (Brain)): 43.71%
% Inhibition of cell viability at 10 µM, A549 (Lung) (A549 (Lung)): NA (NA= Not active (% Inhibition <30%))
% Inhibition of cell viability at 10 µM, DLD1 (Colon) (DLD1 (Colon)): 42.64%
% Inhibition of cell viability at 10 µM, HEK-293 (Non-cancerous cell) [2]: 37.83%
% Inhibition of cell viability at 10 µM, PANC-1 (Pancreas) (PANC-1 (Pancreas)): 50.32%
% Inhibition of cell viability at 10 µM, PLC/PRF/5 (Liver) (PLC/PRF/5 (Liver)): NA (NA= Not active (% Inhibition <30%))
% Inhibition of cell viability at 10 µM, SK-OV-3 (Ovary) (SK-OV-3 (Ovary)): NA (NA= Not active (% Inhibition <30%))
Apoptotic signaling (p53, MDM2, PCNA, caspase 9, caspase 3, PARP-1) (MDA-MB-231 cells): promotes p53 mediated intrinsic pathway of apoptosis
DNA damage marker γH2AX expression (MDA-MB-231 cells): increased expression of γH2AX
Stability in SGF (simulated gastric fluid) ([3]; pH 1.2, 37 °C): 83.19 ± 3.22%
Stability in SIF (simulated intestinal fluid) ([3]; pH 6.8, 37 °C): 96.45 ± 0.79%
Inhibition of T4 DNA ligase activity (T4 DNA ligase): unaffected
Antiligase activity, compound versus parent molecules (hLigI [4]; 20 µM): significantly better antiligase activity
Inhibition of hLigI ligation activity (hLigI [4]; 5, 10 and 20 µM): specifically inhibits the activity of hLigI
Inhibition of hLigIIIβ ligation activity (hLigIIIβ): unaffected
Inhibition of hLigIV/XRCC4 ligation activity (hLigIV/XRCC4): unaffected
Flap cleavage activity of lysate of treated cells [5]: remained unaffected
Conformational change of hLigI (CD) (hLigI [6]): promoted conformational changes in protein
